The text below walks through data of US20260297081A1, “COMPOUNDS AND METHODS OF TREATING CANCERS” (Cullgen Inc., priority 2023, published 2026).

The subject of one test is MCF7 cells. The test can be described thus: Anti-proliferation (viability) of MCF7 cells (Table 7, FIG. 2B). The settings on record: Homo sapiens, MCF7, MCF7 cells, 3-6 days, 10-point serial dilution; read-out: GI IC50 in MCF-7. It is filed as cell-based.
Another test concerns Calu-1 cells. Description: Anti-proliferation (viability) of NSCLC Calu-1 cells, 3 days (Table 7, FIG. 2B). Type of test: cell-based. As to conditions: Homo sapiens, 72 h; Calu-1 cells, 3 days, 10-point serial dilution; read-out: GI IC50 in Calu-1. The method, boiled down: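 Viability after a 10-point dilution series of heterobifunctional compounds, with exposure of 6 days for ER+ breast T47D cells and 3 days for NSCLC Calu-1 cells.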

Where only a bound is given, the exact number is not on record here.

In general, IC50 refers to the concentration that inhibits the measured activity by half. `CC(C)Nc1ccc(C(=O)Nc2ccc(N(C)C)nn2)c(N[C@H]2CC[C@H](C(=O)N3CCC(N4CCN(c5ccc(Nc6ncc7cc(C(F)F)c(=O)n(C8CCCC8)c7n6)nc5)CC4)C3)CC2)n1` (stereo partly drawn) [CPD-559, 2-((trans-4-(3-(4-(6-((8-cyclopentyl-6-(difluoromethyl)-7-oxo-7,8-dihydropyrido[2,3-d]pyrimidin-2-yl)amino)pyridin-3-yl)piperazin-1-yl)pyrrolidine-1-carbonyl)cyclohexyl)amino)-N-(6-(dimethylamino)pyridazin-3-yl)-6-(isopropylamino)nicotinamide]: the IC50 was over 100 nM in the test with MCF7 cells and 10 to 50 nM in the test with Calu-1 cells.
Consider `CC(=O)c1cc2cnc(Nc3ccc(N4CCN(C5CCN(C(=O)[C@H]6CC[C@H](Nc7nc(NC(C)C)ccc7C(=O)Nc7ccc(N(C)C)nn7)CC6)C5)CC4)cn3)nc2n(C2CCCC2)c1=O` (stereo partly drawn) [CPD-560, 2-((trans-4-(3-(4-(6-((6-acetyl-8-cyclopentyl-7-oxo-7,8-dihydropyrido[2,3-d]pyrimidin-2-yl)amino)pyridin-3-yl)piperazin-1-yl)pyrrolidine-1-carbonyl)cyclohexyl)amino)-N-(6-(dimethylamino)pyridazin-3-yl)-6-(isopropylamino)nicotinamide], for which the figures for the IC50 in the test on MCF7 cells and in the test on Calu-1 cells were over 100 nM and at most 10 nM, respectively.
Take `CC(=O)c1c(C)c2cnc(Nc3ccc(N4CCN(C5CCN(C(=O)N6CCC7(CCC(Nc8nc(NC(C)C)ccc8C(=O)Nc8ccc(N(C)C)nn8)C7)C6)C5)CC4)cn3)nc2n(C2CCCC2)c1=O` (stereo not drawn) [CPD-561, 2-((2-(3-(4-(6-((6-acetyl-8-cyclopentyl-5-methyl-7-oxo-7,8-dihydropyrido[2,3-d]pyrimidin-2-yl)amino)pyridin-3-yl)piperazin-1-yl)pyrrolidine-1-carbonyl)-2-azaspiro[4.4]nonan-7-yl)amino)-N-(6-(dimethylamino)pyridazin-3-yl)-6-(isopropylamino)nicotinamide]: the IC50 in the test on MCF7 cells was over 100 nM; in the test on Calu-1 cells it was at most 10 nM.
In the case of `CC(=O)c1c(C)c2cnc(Nc3ccc(CN4CCN(CC(=O)N5CCC(Nc6nc(NC(C)C)ccc6C(=O)Nc6cn7c(n6)CCC7)CC5)CC4)cn3)nc2n(C2CCCC2)c1=O` [CPD-564, 2-((1-(2-(4-((6-((6-acetyl-8-cyclopentyl-5-methyl-7-oxo-7,8-dihydropyrido[2,3-d]pyrimidin-2-yl)amino)pyridin-3-yl)methyl)piperazin-1-yl)acetyl)piperidin-4-yl)amino)-N-(6,7-dihydro-5H-pyrrolo[1,2-a]imidazol-2-yl)-6-(isopropylamino)nicotinamide], the figures for the IC50 in the test with MCF7 cells and with Calu-1 cells were over 100 nM and 10 to 50 nM, respectively.
As to `CC(=O)c1c(C)c2cnc(Nc3ccc(N4CCN(CC(=O)NC5CC6(C5)CC(Nc5nc(NC(C)C)ccc5C(=O)Nc5cn7c(n5)CCC7)C6)CC4)cn3)nc2n(C2CCCC2)c1=O` (stereo not drawn) [CPD-566, 2-((6-(2-(4-(6-((6-acetyl-8-cyclopentyl-5-methyl-7-oxo-7,8-dihydropyrido[2,3-d]pyrimidin-2-yl)amino)pyridin-3-yl)piperazin-1-yl)acetamido)spiro[3.3]heptan-2-yl)amino)-N-(6,7-dihydro-5H-pyrrolo[1,2-a]imidazol-2-yl)-6-(isopropylamino)nicotinamide], the IC50 is under 50 nM with MCF7 cells and at most 10 nM in the test with Calu-1 cells.
On to `[2H]C([2H])([2H])Nc1ccc(C(=O)Nc2cn3c(n2)CCC3)c(NC2CC3(C2)CN(C(=O)CC(N2CCN(c4ccc(Nc5ncc6c(C)c(C(C)=O)c(=O)n(C7CCCC7)c6n5)nc4)CC2)C(F)(F)F)C3)n1` (stereo not drawn) [CPD-567, 2-((2-(3-(4-(6-((6-acetyl-8-cyclopentyl-5-methyl-7-oxo-7,8-dihydropyrido[2,3-d]pyrimidin-2-yl)amino)pyridin-3-yl)piperazin-1-yl)-4,4,4-trifluorobutanoyl)-2-azaspiro[3.3]heptan-6-yl)amino)-N-(6,7-dihydro-5H-pyrrolo[1,2-a]imidazol-2-yl)-6-((methyl-d3)amino)nicotinamide], for which the results for the IC50 with MCF7 cells and in the test on Calu-1 cells were 50 to 100 nM and at most 10 nM, respectively.
